According to PubChem BioAssay (NCI):
Several values for one entry are separate records, joined by “and”; a condition that tells them apart may be missing. Equal values may be shown once.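 Five compound concentrations were applied to cells in 96-well plates for 48 hours; endpoints were derived by simple linear interpolation of the resulting dose-response curve. TGI marks complete inhibition of growth.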

Tests used:
Experiment in all cases: growth of human tumour cells (NCI), 48 h
CAKI-1 renal = test system: CAKI-1 renal
DU-145 prostate = test system: DU-145 prostate
HT29 colon = test system: HT29 colon
IGROV1 ovarian = test system: IGROV1 ovarian
MDA-MB-435 = test system: MDA-MB-435
NCI-H226 lung = test system: NCI-H226 lung
OVCAR-4 ovarian = test system: OVCAR-4 ovarian
OVCAR-8 ovarian = test system: OVCAR-8 ovarian
SF-268 CNS = test system: SF-268 CNS
SK-MEL-5 melanoma = test system: SK-MEL-5 melanoma

SMILES	TGI (CAKI-1 renal) [µM]	TGI (DU-145 prostate) [µM]	TGI (HT29 colon)	TGI (IGROV1 ovarian)	TGI (MDA-MB-435) [µM]	TGI (NCI-H226 lung) [µM]	TGI (OVCAR-4 ovarian) [µM]	TGI (OVCAR-8 ovarian)	TGI (SF-268 CNS) [µM]	TGI (SK-MEL-5 melanoma) [µM]
COc1ccc(C2=CN3CCC[C@H]3C=C2c2cc(O)c(OC)c(OC)c2)cc1OC	0.0522	0.254	0.113 µM and 0.0377 µM	0.3 µM and 0.0857 µM	0.0165	0.0294	0.0374	0.0518 µM and 0.0108 µM	0.112	0.015
CC(=O)NC1=C(C)C(=O)c2c(nc3n2CC[C@H]3OC(C)=O)C1=O	8.22	29.4	8.13 µM	8.71 µM	1.85	29.7	3	6.75 µM	10.7	8.07
CC(C)(NC1=NCCO1)c1ccccc1	> 100	> 100	> 100 µM	> 100 µM	> 100	> 100	> 100	> 100 µM	> 100	> 100
Cc1cc([N+](=O)[O-])ccc1N=NC(=O)NNc1ccc([N+](=O)[O-])cc1C	29.3	30.1	45.6 µM	33.8 µM	28.4	31.5	31.9	30 µM	40.9	26.7
Cc1cc(N=C2C=C(Nc3cc(C)on3)C(=O)c3ccccc32)no1	> 100	> 100	> 100 µM	> 78.1 µM	22.5	> 100	> 100	> 100 µM	> 100	15.9
CN(C)CCn1c(=O)c2ccc3c4c(nn3CCN(C)C)c3ccccc3n(c1=O)c24	0.52	3.54	2.23 µM	1.92 µM	1.39	2.92	1.71	0.288 µM	5.12	1.42
Cc1nnc2sc(N/N=C/c3ccccc3)nn12	> 100	> 100	> 100 µM	> 100 µM	> 100	> 100	> 100	> 100 µM	> 100	> 100
CC(C)(C)OC(=O)NCC(=O)N1CCCN(C(=O)CNC(=O)OC(C)(C)C)CC1	> 100	> 100	> 100 µM	> 100 µM	> 100	> 100	> 100	> 100 µM	> 100	> 100
CCC(C)C1(O)OC2CC3(C)OC(=CC3=O)/C(C)=C\C3OC(=O)C1(C)C32 (stereo not given)	31.5	17	34.3 µM	53.5 µM	> 100	63	> 100	59.9 µM	> 100	23.1
CC(=O)OCC1OC(c2nnc(C)o2)=CC(OC(C)=O)C1OC(C)=O (stereo not given)	> 100	> 100	> 100 µM	> 100 µM	> 100	> 100	> 100	> 100 µM	> 100	> 100
Nc1c(S(=O)(=O)O)cc(Nc2cccc(S(=O)(=O)/C=C/S(=O)(=O)O)c2)c2c1C(=O)c1ccccc1C2=O	> 100	> 100	> 100 µM	> 100 µM	> 100	> 100	> 100	> 100 µM	> 100	> 100
CN(C)CCOC1(CC2CCCCC2)CCC(C(C)(C)C)CC1 (stereo not given)	19.1	19.6	7.02 µM	22.2 µM	13.8	21.2	19.8	19.3 µM	25.4	4.8
O=[N+]([O-])c1ccc(Cl)cc1C=NC12CC3CC(CC(C3)C1)C2	> 100	> 100	> 79.9 µM	> 100 µM	> 100	> 100	> 100	> 100 µM	> 100	> 100
Nc1nc2cc(CNc3ccc(C(=O)NC(CCC(=O)O)C(=O)O)cc3)ccc2nc1-c1ccccc1 (stereo not given)	> 10	> 10	> 10 µM	> 10 µM	> 10	> 10	> 10	> 10 µM	> 10	> 10
Cc1c(F)c(N)c2c(=O)cc(-c3ccc(NC(=O)C(N)CCCN=C(N)N)c(F)c3)oc2c1F (stereo not given)	3.32	> 78.9	> 100 µM	10.8 µM	> 83.6	0.758	40.7	> 82.8 µM	> 100	76.8
